This assay addresses T1, human MRGPRX2 (Homo sapiens, UniProt Q96LB1).
T1 sequence (Q96LB1 1-330): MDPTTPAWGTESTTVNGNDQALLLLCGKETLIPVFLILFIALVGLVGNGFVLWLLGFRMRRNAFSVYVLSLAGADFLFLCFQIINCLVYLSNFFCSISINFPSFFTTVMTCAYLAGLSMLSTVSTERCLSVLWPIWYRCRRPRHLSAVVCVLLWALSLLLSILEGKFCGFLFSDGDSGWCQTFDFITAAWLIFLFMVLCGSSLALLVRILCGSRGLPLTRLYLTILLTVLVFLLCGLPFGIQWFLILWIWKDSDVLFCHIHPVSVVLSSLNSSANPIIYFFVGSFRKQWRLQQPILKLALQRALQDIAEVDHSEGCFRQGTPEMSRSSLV
The experiment in a line: Ca2+ mobilization assay (FLIPR TETRA): inhibition of Cortistatin-14 mediated MRGPRX2 activation. In general terms: Calcium flux is commonly read through the fluorescence of an indicator in the cells.

The IC50 is the concentration that inhibits the measured activity by half. A high value points to weaker potency.

On to `C[C@@H](C(=O)Nc1cnc(C2CC2)cn1)N1CCC(F)(F)[C@@H](c2ccc(=O)[nH]c2)C1` [Example 70, (S)-N-(5-cyclopropyl-pyrazin-2-yl)-2-((S)-4,4-difluoro-3-(6-oxo-1,6-dihydropyridin-3-yl)piperidin-1-yl)propanamide], for which the IC50 was 100 to 3160 nM. In the case of `C[C@@H](C(=O)Nc1ccc(F)cn1)N1CCC(F)(F)C(c2cc(N)c(=O)n(CC(F)(F)F)c2)C1` (stereo partly drawn) [Example 187, (2S)-2-(3-(5-amino-6-oxo-1-(2,2,2-trifluoroethyl)-1,6-dihydropyridin-3-yl)-4,4-difluoropiperidin-1-yl)-N-(5-fluoropyridin-2-yl)propanamide] it was 3160 to 31600 nM; in that of `CC(C(=O)Nc1ccc(OCC2CC2)cn1)N1CC(c2ccc(=O)[nH]c2)C(F)(F)C1` (centres unmarked) [Example 164, N-(5-(cyclopropylmethoxy)pyridin-2-yl)-2-(3,3-difluoro-4-(6-oxo-1,6-dihydropyridin-3-yl)pyrrolidin-1-yl)propanamide], 100 to 3160 nM; in that of `C[C@@H](C(=O)Nc1ccc(F)cn1)N1CCC(F)(F)[C@@H](c2ccc(=O)n(CC(F)F)c2)C1` [Example 193], at most 10 nM. `CC(C(=O)Nc1ncc(Oc2ccc(F)cn2)cc1F)N1CCC(F)(F)[C@@H](c2ccc(=O)[nH]c2)C1` (stereo partly drawn) [Example 91, 2-((S)-4,4-difluoro-3-(6-oxo-1,6-dihydropyridin-3-yl)piperidin-1-yl)-N-(3-fluoro-5-((5-fluoropyridin-2-yl)oxy)pyridin-2-yl)propanamide] registered an IC50 of 100 to 3160 nM. For `Cc1cc([C@@H]2CN([C@H](C)C(=O)Nc3ccc(Oc4ccc(F)cc4)cn3)CCC2(F)F)cc[n+]1[O-]` (racemic) [Example 218, 4-((R)-4,4-difluoro-1-((R)-1-((5-(4-fluorophenoxy)pyridin-2-yl)amino)-1-oxopropan-2-yl)piperidin-3-yl)-2-methylpyridine 1-oxide and 4-((S)-4,4-difluoro-1-((S)-1-((5-(4-fluorophenoxy)pyridin-2-yl)amino)-1-oxopropan-2-yl)piperidin-3-yl)-2-methylpyridine 1-oxide], the IC50 fell in the range of 10 to 100 nM. In the case of `C[C@@H](C(=O)Nc1ccc(Oc2ccc(F)cn2)cn1)[C@H]1CCC(F)(F)[C@@H](c2ccc(=O)[nH]c2)C1` [Example 279, (R)-2-((1S,3R)-4,4-difluoro-3-(6-oxo-1,6-dihydropyridin-3-yl)cyclohexyl)-N-(5-((5-fluoropyridin-2-yl)oxy)pyridin-2-yl)propanamide] it was at most 10 nM. As to `C[C@@H](C(=O)Nc1cnc(Oc2ccc(F)cc2)cn1)N1CCC(F)(F)[C@@H](c2ccc(=O)[nH]c2)C1` [Example 68, (S)-2-((S)-4,4-difluoro-3-(6-oxo-1,6-dihydropyridin-3-yl)piperidin-1-yl)-N-(5-(4-fluorophenoxy)pyrazin-2-yl)propanamide], the IC50 is 10 to 100 nM.

Regarding `C[C@@H](C(=O)Nc1ccc(Oc2ccncn2)cn1)N1CCC(F)(F)[C@@H](c2ccc(=O)[nH]c2)C1` [Example 74, (S)-2-((S)-4,4-difluoro-3-(6-oxo-1,6-dihydropyridin-3-yl)piperidin-1-yl)-N-(5-(pyrimidin-4-yloxy)pyridin-2-yl)propanamide], the IC50 is 100 to 3160 nM.

Take `C[C@@H](C(=O)Nc1ccc(Oc2ccc(F)cn2)cn1)[C@H]1CCC[C@@H](c2cc[n+]([O-])cc2)C1` [Example 287, 4-((1R,3S)-3-((R)-1-((5-((5-fluoropyridin-2-yl)oxy)pyridin-2-yl)amino)-1-oxopropan-2-yl)cyclohexyl)pyridine 1-oxide]: the IC50 lay in the range of 10 to 100 nM. The same measure for `C[C@@H](C(=O)Nc1ccc(Oc2ncc(F)cc2F)cn1)N1CCC(F)(F)[C@@H](c2cc[n+]([O-])cc2)C1` [Example 116]: 10 to 100 nM.

Turning to `C[C@@H](C(=O)Nc1cnc(Oc2ccc(F)cc2CO)cn1)N1CCC(F)(F)[C@@H](c2ccc(=O)[nH]c2)C1` [Example 272], the IC50 fell in the range of 10 to 100 nM.

Compound `CC(C(=O)Nc1ccc(C(=O)OC2CC2)cn1)N1CCC(F)(F)[C@@H](c2ccc(=O)[nH]c2)C1` (stereo partly drawn) [Example 83, cyclopropyl 6-(2-((S)-4,4-difluoro-3-(6-oxo-1,6-dihydropyridin-3-yl)piperidin-1-yl)propanamido) nicotinate] had an IC50 of 100 to 3160 nM. The same measure for `CC(C(=O)Nc1ccc(Oc2ccc(F)cc2)cn1)N1CCC(F)(F)C(c2cc[n+]([O-])c(C(O)C(F)(F)F)c2)C1` (centres unmarked) [Example 257]: 10 to 100 nM; for `C[C@@H](C(=O)Nc1ccc(Oc2ccc(F)cc2F)cn1)N1CCC(F)(F)[C@@H](c2c[nH]c(=O)c(CN3CCOCC3)c2)C1` [Example 227, (S)-2-((S)-4,4-difluoro-3-(5-(morpholinomethyl)-6-oxo-1,6-dihydropyridin-3-yl)piperidin-1-yl)-N-(5-(2,4-difluorophenoxy)pyridin-2-yl)propanamide]: at most 10 nM; for `CC(C(=O)Nc1ccc(OCC(F)F)cn1)N1CCC(F)(F)[C@@H](c2ccc(=O)[nH]c2)C1` (stereo partly drawn) [Example 49, 2-((S)-4,4-difluoro-3-(6-oxo-1,6-dihydropyridin-3-yl)piperidin-1-yl)-N-(5-(2,2-difluoroethoxy)pyridin-2-yl)propanamide]: 100 to 3160 nM. The same measure for `C[C@@H](C(=O)Nc1ccc(C2CC2)cn1)N1CCC(F)(F)[C@@H](c2ccc(=O)[nH]n2)C1` [Example 147]: 100 to 3160 nM; for `C[C@@H](C(=O)Nc1ccc(F)cn1)[C@H]1CCC(F)(F)[C@@H](c2ccc(=O)[nH]c2)C1` [Example 277, (R)-2-((1S,3R)-4,4-difluoro-3-(6-oxo-1,6-dihydropyridin-3-yl)cyclohexyl)-N-(5-fluoropyridin-2-yl)propanamide]: 10 to 100 nM; for `CC(C(=O)Nc1ccc(Oc2ccc(F)cc2)cn1)C1CCC(F)(F)C(c2ccc(=O)[nH]c2)C1` (centres unmarked) [Example 278, 2-(4,4-difluoro-3-(6-oxo-1,6-dihydropyridin-3-yl)cyclohexyl)-N-(5-(4-fluorophenoxy)pyridin-2-yl)propanamide]: at most 10 nM. In the case of `CC(C(=O)Nc1cnc(Oc2ccc(F)cc2F)cn1)N1CCC(F)(F)C(c2cc[n+]([O-])c(C(N)=O)c2)C1` (centres unmarked) [Example 260, 2-carbamoyl-4-(1-(1-((5-(2,4-difluorophenoxy)pyrazin-2-yl)amino)-1-oxopropan-2-yl)-4,4-difluoropiperidin-3-yl)pyridine 1-oxide], the IC50 is at most 10 nM.

With `C[C@@H](C(=O)Nc1cnc(Oc2ccccc2)cn1)N1CCC(F)(F)[C@@H](c2ccc(=O)[nH]c2)C1` [Example 60, (S)-2-((S)-4,4-difluoro-3-(6-oxo-1,6-dihydropyridin-3-yl)piperidin-1-yl)-N-(5-phenoxypyrazin-2-yl)propanamide], the IC50 lay within 10 to 100 nM.

For the compound `CC(C(=O)Nc1ccc(-c2ccon2)cn1)N1CCC(F)(F)[C@@H](c2ccc(=O)[nH]c2)C1` (stereo partly drawn) [Example 56, 2-((S)-4,4-difluoro-3-(6-oxo-1,6-dihydropyridin-3-yl)piperidin-1-yl)-N-(5-(isoxazol-3-yl)pyridin-2-yl)propanamide], the IC50 was in the range of 3160 to 31600 nM. The same measure for `C[C@@H](C(=O)Nc1ccc(OCC2CC2)nn1)N1CCC(F)(F)[C@@H](c2c[nH]c(=O)c(CN)c2)C1` [Example 203, (S)-2-((S)-3-(5-(aminomethyl)-6-oxo-1,6-dihydropyridin-3-yl)-4,4-difluoropiperidin-1-yl)-N-(6-(cyclopropylmethoxy)pyridazin-3-yl)propanamide]: 10 to 100 nM.
